In this test the target is mouse TRPM3α2 (mTRPM3) ion channel (Mus musculus (Mouse), UniProt J9SQF3). The test can be described thus: TRPM3 ion channel driven Ca2+ uptake, Fluo-4 AM assay, mTRPM3alpha2 overexpressing flip-in HEK293 cells stimulated with pregnenolone sulfate. In kind it is cell-based. Summed up:
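Read-out is Ca2+ influx via Fluo-4 AM fluorescence at 485/535 nm, taken right after seeding ~2000 cells/well onto compound with 50 μM PS. Inhibition computed from RFU between vehicle-stimulated and positive-control-inhibitor wells; cells were mTRPM3α2-overexpressing flip-in HEK293.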

[1] abbreviates: PS (50 μM) stimulated, cpd 001-199.
Where [2] appears, read: PS (50 μM) stimulated, cpds. 500-599.

Molecules are shown by their SMILES.

As usually defined, the IC50 is the concentration that inhibits the measured activity by half.

Sequence of mouse TRPM3α2 (mTRPM3) ion channel (J9SQF3 other isoform, or with tags, fused parts or gaps): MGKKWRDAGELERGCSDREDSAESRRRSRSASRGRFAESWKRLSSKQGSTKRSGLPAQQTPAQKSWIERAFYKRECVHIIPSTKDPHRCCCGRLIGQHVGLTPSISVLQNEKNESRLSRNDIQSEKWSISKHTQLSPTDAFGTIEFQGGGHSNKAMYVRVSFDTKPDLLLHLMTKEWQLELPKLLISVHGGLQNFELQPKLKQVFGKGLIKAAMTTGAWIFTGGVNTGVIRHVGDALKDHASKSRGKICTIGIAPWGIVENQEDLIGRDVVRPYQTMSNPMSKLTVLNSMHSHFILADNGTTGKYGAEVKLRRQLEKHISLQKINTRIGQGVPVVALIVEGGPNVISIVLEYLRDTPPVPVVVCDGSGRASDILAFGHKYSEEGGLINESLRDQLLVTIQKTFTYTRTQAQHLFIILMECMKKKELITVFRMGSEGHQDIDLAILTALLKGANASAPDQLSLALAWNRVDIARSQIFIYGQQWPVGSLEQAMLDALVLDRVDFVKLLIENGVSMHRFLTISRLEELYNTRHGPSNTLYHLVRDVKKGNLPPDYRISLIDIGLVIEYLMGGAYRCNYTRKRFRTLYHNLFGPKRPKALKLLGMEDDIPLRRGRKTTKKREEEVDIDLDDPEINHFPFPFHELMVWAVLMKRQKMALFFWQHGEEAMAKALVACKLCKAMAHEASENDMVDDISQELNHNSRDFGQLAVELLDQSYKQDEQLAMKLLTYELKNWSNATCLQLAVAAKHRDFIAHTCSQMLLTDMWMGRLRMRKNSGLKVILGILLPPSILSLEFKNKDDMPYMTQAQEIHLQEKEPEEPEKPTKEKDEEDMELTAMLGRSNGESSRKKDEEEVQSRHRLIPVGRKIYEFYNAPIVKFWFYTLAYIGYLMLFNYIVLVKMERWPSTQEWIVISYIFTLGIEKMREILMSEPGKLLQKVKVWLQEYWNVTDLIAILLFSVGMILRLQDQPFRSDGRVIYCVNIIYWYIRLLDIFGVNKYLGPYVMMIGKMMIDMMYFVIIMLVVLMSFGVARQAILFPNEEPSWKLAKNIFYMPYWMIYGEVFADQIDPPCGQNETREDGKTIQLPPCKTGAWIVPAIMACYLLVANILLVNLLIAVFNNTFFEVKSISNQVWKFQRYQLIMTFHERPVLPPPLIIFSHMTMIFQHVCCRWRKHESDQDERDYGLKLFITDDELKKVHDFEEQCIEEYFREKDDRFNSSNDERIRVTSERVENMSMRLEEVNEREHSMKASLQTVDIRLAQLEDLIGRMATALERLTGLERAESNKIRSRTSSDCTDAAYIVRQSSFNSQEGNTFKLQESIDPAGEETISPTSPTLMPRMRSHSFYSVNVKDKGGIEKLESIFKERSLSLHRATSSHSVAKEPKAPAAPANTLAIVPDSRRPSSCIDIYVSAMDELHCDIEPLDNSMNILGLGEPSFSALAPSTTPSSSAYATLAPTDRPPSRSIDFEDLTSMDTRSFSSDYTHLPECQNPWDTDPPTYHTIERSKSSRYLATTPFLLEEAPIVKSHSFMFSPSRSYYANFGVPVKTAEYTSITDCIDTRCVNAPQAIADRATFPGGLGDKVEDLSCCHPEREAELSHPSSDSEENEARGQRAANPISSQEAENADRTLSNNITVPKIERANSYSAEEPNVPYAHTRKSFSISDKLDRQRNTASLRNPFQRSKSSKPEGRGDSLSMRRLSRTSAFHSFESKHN

On to `Cc1oc2cc(C#N)c(OCc3cccnc3C(F)(F)F)cc2c1C(=O)NC1CCNCC1(F)F` (single isomer, unassigned) [195-En 2, 6-cyano-N-(3,3-difluoropiperidin-4-yl)-2-methyl-5-((2-(trifluoromethyl)pyridin-3-yl)methoxy) -benzofuran-3-carboxamide], for which the IC50 under setting [1] was over 20 µM.

In turn, `Cc1oc2c(F)cc(OCc3cccnc3C(F)(F)F)cc2c1C(=O)NC1CCNCC1(F)F` (single isomer, unassigned) [cpd 176-En 1, N-(3,3-difluoropiperidin-4-yl)-7-fluoro-2-methyl-5-((2-(trifluoro-methyl)pyridin-3-yl)methoxy)benzofuran-3-carboxamide] returned an IC50 under setting [1] of 1 to 20 µM.

Compound `Cc1oc2ccc(OCC3(C)COC3)cc2c1C(=O)NC1CCNCC1(F)F` (single isomer, unassigned) [cpd 550-En 1] came in with an IC50 under setting [2] of 1 to 20 µM.

In the case of `Cc1ccc(COc2ccc3oc(C)c(C(=O)N[C@@H](CO)C(N)=O)c3c2)cn1` [compound 291, (S)-N-(1-amino-3-hydroxy-1-oxopropan-2-yl)-2-methyl-5-((6-methylpyridin-3-yl)methoxy)benzofuran-3-carboxamide], under “PS 50 μM, cpds 200-299”, the IC50 was under 1 µM.

Compound `Cc1ncsc1COc1ccc2oc(C)c(C(=O)NCc3cc[nH]n3)c2c1` [compound 374, N-((1H-pyrazol-3-yl)methyl)-2-methyl-5-((4-methylthiazol-5-yl)methoxy)benzofuran-3-carboxamide] had an IC50 (PS 50 μM, cpds 300-399) of under 1 µM.

On to `Cc1oc2ccc(OCc3cccnc3C(F)(F)F)cc2c1C(=O)NC1(CCO)CCC1` [compound 127, N-(1-(2-hydroxyethyl)cyclobutyl)-2-methyl-5-((2-(trifluoromethyl)pyridin-3-yl)methoxy)benzo-furan-3-carboxamide], for which, under setting [1], the IC50 is under 1 µM.

Take `Cc1oc2ccc(OCc3cnnn3C)cc2c1C(=O)NC1CCNCC1(F)F` (single isomer, unassigned) [cpd 541-En 2]: the IC50 under setting [2] was over 20 µM.

Compound `COc1ncccc1COc1cc2c(C(=O)NC3(CO)CCOCC3)c(C)oc2cc1F` [compound 364, 6-fluoro-N-(4-(hydroxymethyl)tetrahydro-2H-pyran-4-yl)-5-((2-methoxypyridin-3-yl)methoxy)-2-methylbenzofuran-3-carboxamide] showed an IC50 (PS 50 μM, cpds 300-399) of under 1 µM.

`Cc1oc2ccc(OCc3cccnc3C(F)(F)F)cc2c1C(=O)NC(C)CO` (single isomer, unassigned) [cpd 489-En 2] registered an IC50 (PS (50 μM) stimulated, cpds. 400-499) of under 1 µM.

For the setting “PS 50 μM, cpds 200-299”, `Cc1oc2ccc(OCc3cccnc3OC(F)F)cc2c1C(=O)N[C@@H](CO)C(N)=O` [compound 296, (S)-N-(1-amino-3-hydroxy-1-oxopropan-2-yl)-5-((2-(difluoromethoxy)pyridin-3-yl)methoxy)-2-methylbenzofuran-3-carboxamide] displayed an IC50 of under 1 µM.

As to `Cc1ncccc1COc1ccc2oc(C)c(C(=O)N[C@H](C(N)=O)[C@@H](C)O)c2c1` [compound 376, N-((2S,3R)-1-amino-3-hydroxy-1-oxobutan-2-yl)-2-methyl-5-((2-methylpyridin-3-yl)methoxy)benzofuran-3-carboxamide], the IC50 (PS 50 μM, cpds 300-399) is under 1 µM.

Compound `Cc1oc2ccc(OCc3cccnc3O)cc2c1C(=O)NC1(C(N)=O)COC1` [compound 585, N-(3-carbamoyloxetan-3-yl)-5-((2-hydroxypyridin-3-yl)methoxy)-2-methylbenzofuran-3-carboxamide] displayed an IC50 under setting [2] of under 1 µM.

In the case of `Cc1ncc(COc2ccc3oc(C)c(C(=O)NCC4(F)CCOCC4)c3c2)s1` [compound 393, N-((4-fluorotetrahydro-2H-pyran-4-yl)methyl)-2-methyl-5-((2-methylthiazol-5-yl)methoxy)benzofuran-3-carboxamide], for the setting “PS 50 μM, cpds 300-399”, the IC50 was under 1 µM.

As to `Cc1ncsc1C(C)Oc1ccc2oc(C)c(C(=O)NC3(CO)CCOCC3)c2c1` (stereo not drawn) [cpd 623-En 1], the IC50 (PS (50 μM) stimulated, cpds. 608-666) is under 1 µM.

In the case of `Cc1ncsc1COc1ccc2oc(C)c(C(=O)NC3(CO)CCOCC3)c2c1C#N` [compound 193], the IC50 under setting [1] is over 20 µM.

The values above are taken from patent US12209081B2 (Katholieke Universiteit Leuven, priority 2020, dated 2025).
